{"source": "paper PMC9896599", "about": "“Biogenesis of flavor-related linalool is diverged and genetically conserved in tree peony (Paeonia × suffruticosa)” (Horticulture Research, 2022)", "type_in_all_cases": "biochemical", "settings_in_all_cases": "10 uM GPP, 30 mM KCl, 5 mM MgCl2, 1 mM MnCl2, 50 mM HEPES pH 7.5, 30 °C, 1 h", "key": {"PdTPS4": {"target": "T1, PdTPS4 (Paeonia delavayi, UniProt A0A9E8GE34)", "T1 construct": "full-length cDNA, C-terminal His6, E. coli Transetta (DE3), Ni-NTA purified; the five PdTPS are 553-600 residues, about 65 kDa; plastid-localized", "T1 sequence (A0A9E8GE34 entry or part of it)": "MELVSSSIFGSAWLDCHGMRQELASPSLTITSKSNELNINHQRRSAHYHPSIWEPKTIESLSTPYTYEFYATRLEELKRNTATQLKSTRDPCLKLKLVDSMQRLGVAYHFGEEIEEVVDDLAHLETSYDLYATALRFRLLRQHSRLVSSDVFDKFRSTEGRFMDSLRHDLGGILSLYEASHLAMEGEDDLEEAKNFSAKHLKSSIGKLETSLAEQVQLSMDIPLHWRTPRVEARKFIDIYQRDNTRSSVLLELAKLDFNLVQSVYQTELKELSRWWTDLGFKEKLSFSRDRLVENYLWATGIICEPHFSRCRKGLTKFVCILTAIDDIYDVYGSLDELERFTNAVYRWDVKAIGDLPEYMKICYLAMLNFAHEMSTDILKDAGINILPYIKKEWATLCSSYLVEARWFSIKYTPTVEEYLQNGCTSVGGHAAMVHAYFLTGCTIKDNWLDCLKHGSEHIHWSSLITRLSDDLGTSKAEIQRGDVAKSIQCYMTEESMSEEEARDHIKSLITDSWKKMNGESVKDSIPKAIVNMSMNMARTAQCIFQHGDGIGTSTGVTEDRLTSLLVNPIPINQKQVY", "experiment": "GC-MS of headspace product (linalool)"}, "PdTPS1": {"target": "T2, PdTPS1 (Paeonia delavayi, UniProt A0A9E8GEC8)", "T2 construct": "full-length cDNA, C-terminal His6, E. coli Transetta (DE3), Ni-NTA purified; the five PdTPS are 553-600 residues, about 65 kDa; plastid-localized", "T2 sequence (A0A9E8GEC8 entry or part of it)": "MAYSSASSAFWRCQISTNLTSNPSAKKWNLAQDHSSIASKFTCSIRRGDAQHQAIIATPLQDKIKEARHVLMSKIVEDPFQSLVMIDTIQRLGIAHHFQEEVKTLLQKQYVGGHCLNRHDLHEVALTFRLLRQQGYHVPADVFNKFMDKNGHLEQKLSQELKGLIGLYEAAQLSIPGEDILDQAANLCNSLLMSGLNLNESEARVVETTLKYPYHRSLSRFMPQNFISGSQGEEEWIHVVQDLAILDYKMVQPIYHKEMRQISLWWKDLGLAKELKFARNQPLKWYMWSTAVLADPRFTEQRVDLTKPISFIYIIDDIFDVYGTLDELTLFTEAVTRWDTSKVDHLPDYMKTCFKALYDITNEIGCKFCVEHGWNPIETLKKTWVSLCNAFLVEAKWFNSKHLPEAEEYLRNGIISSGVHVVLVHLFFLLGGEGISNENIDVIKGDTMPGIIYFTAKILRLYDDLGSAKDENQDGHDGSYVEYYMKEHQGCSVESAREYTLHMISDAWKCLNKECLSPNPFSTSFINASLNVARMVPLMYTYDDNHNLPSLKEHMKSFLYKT", "experiment": "GC-MS of headspace product (linalool)"}, "PdTPS3": {"target": "T3, PdTPS3 (Paeonia delavayi, UniProt A0A9E8G7R5)", "T3 construct": "full-length cDNA, C-terminal His6, E. coli Transetta (DE3), Ni-NTA purified; the five PdTPS are 553-600 residues, about 65 kDa; plastid-localized", "T3 sequence (A0A9E8G7R5 entry or part of it)": "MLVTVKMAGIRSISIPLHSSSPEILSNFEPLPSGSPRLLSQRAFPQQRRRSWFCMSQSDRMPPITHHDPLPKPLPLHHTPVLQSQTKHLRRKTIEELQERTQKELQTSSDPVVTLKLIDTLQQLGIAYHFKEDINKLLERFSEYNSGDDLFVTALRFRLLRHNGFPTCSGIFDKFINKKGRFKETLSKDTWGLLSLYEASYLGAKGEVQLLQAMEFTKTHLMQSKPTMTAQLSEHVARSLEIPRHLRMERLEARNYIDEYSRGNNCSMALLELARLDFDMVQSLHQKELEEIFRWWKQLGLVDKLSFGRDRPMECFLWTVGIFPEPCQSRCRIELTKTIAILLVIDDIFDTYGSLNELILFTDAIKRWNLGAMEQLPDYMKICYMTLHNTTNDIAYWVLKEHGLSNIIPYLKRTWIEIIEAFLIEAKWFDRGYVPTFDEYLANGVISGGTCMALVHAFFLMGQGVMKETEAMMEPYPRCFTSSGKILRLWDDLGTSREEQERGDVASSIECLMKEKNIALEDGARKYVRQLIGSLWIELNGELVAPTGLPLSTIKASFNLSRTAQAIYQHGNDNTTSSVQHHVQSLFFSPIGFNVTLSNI", "experiment": "GC-MS of headspace product (geraniol)"}}, "data": [{"compound": "CC(C)=CCC/C(C)=C/COP(=O)(O)OP(=O)(O)O", "note": "[GPP]", "values": [{"measurement": "GC-MS of headspace product (linalool)", "setting": "PdTPS4", "result": "both PdTPS1 and PdTPS4 catalyzed the formation of acyclic terpene alcohols with linalool"}, {"measurement": "GC-MS of headspace product (linalool)", "setting": "PdTPS1", "result": "both PdTPS1 and PdTPS4 catalyzed the formation of acyclic terpene alcohols with linalool"}, {"measurement": "GC-MS of headspace product (geraniol)", "setting": "PdTPS3", "result": "The reaction products catalyzed by PdTPS3 with GPP formed geraniol rather than linalool"}]}]}
